Patent US20240252520A1 (priority 2023, published 2024)
Entries after “also recorded” stand apart in the source; their conditions may differ.

What was measured:
diabetic db/db mice = experiment: LNP-FGF2, LNP-IL-2, LNP-CHI3L1, LNP-IL-17A mRNA bandages in db/db mice (Example 15); format: in vivo, mouse
Method: Two 6-mm punch biopsy full-thickness wounds were created on the dorsum of 16-week-old diabetic db/db mice (FIG. 19A). Macroporous bandages loaded with 4 μg of LNP-FGF2, LNP-IL-2, LNP-CHI3L1, and LNP-IL-17A mRNA were topically applied on the wounds for 10 days. […] The wound size was measured every three days.

fibroblasts [1] = experiment: Alamar Blue assay of fibroblast metabolic activity; format: cell-based, human; details: over three days after treatment
Source text: (§1) This concentration was selected for all subsequent experiments (FIG. 24A).
Following the in silico prioritization of metrifonate as a key compound in promoting wound healing, we determined if addition of metrifonate influenced key cell functions in tissue cultures of cells that are implicated in wound healing, such as fibroblasts, keratinocytes and macrophages.
In a further example, an alamarBlue™ Assay can be used as follows: Human dermal fibroblasts (immortalized cell line, abm Cat. No. T0904) are cultured in complete medium (PriGrow III with 10% Fetal Bovine Serum, 100U/L penicillin, and 100 ug/L streptomycin) at 37° C. in 5% CO2. The cells are passaged every 7 days using 0.025% trypsin-ethylenediaminetetraacetic acid (Life Technologies) and plated at 10,000 cells per well in 96-well plates. […] Cell viability is determined by alarmarBlue™ (Invitrogen) after 48h, and 72h of incubation. Briefly, after 48 or 72h of incubation the media containing inhibitors is removed and replaced with 10% v/v alamarBlue™ in complete media and the plate is incubated at 37° C. for further 24 h. After this incubation period, plates are read at an excitation range of 540-570 nm and an emission range of 580-610 nm. All AchE inhibitors are expected to not negatively affect cell proliferation up to the concentration of 10 μg/ml.

keratinocytes [2] = experiment: Wound healing scratch assay of keratinocytes with metrifonate; format: cell-based; details: 10 μg/ml, after 24 hours
Method: as §1
Keratinocyte HaCaT cells (ATCC) are cultured in complete medium (Dulbecco's Modified Eagle Medium with 10% Fetal Bovine Serum, 100U/L penicillin, and 100 ug/L streptomycin) at 37° C. in 5% CO2. The cells are passaged every 5 days using 0.025% trypsin-ethylenediaminetetraacetic acid (Life Technologies) detachment and plated at 100,000 cells per well in 24-well plates. The cell monolayer is scratched in a straight line using a P200 pipette tip. […] Images are taken immediately after the scratch (0 h), in 6 h, 12 h, 24 h, 48 h, and 72 h for at least four wells per condition. Scratch areas are analyzed using ImageJ/FIJI. At least three independent experiments are performed. All AchE inhibitors are expected to promote faster wound coverage up to the concentration of 10 μg/ml.

[3] = tested on: THP-1 derived macrophages; experiment: Cytokine gene expression in THP-1 derived macrophages polarized to M0, M1, M2; format: cell-based, human
Source text: as §1

db/db mouse model [4] = experiment: LD-Met gel in db/db mice, Day 5 and Day 10 wound analyses; format: in vivo; details: Day 5
[5] = target: T1, Acetylcholinesterase (AchE) (Mus musculus, UniProt P21836); experiment: AchE activity in Day 5 mouse wound lysates; format: in vivo; details: Day 5, 2 days after bandage removal
T1 construct: measuring the levels of the enzyme on Day 5 in mouse wounds lysates; from tissue; host or cells: skin wound tissue lysate of db/db mice, Day 5 after wounding
T1 sequence (P21836 32-614): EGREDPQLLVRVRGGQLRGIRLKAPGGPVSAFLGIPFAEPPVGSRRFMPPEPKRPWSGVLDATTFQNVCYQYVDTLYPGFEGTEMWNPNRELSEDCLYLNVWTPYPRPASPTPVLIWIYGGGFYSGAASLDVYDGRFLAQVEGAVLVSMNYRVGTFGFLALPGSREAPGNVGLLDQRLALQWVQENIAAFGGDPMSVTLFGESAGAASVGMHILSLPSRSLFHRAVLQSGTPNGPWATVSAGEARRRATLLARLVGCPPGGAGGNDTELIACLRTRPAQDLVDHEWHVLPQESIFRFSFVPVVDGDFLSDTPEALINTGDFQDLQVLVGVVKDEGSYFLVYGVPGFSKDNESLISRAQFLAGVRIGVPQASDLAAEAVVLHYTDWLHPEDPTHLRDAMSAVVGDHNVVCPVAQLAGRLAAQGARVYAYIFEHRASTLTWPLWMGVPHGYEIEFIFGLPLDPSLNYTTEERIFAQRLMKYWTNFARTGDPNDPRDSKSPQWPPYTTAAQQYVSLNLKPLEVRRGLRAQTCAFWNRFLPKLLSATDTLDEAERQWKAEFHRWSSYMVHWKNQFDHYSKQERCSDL

diabetic humanized mice = experiment: Metrifonate hydrogel on diabetic humanized mice wounds; format: in vivo, mouse
Source text: These genes are well known to improve impaired diabetic wound healing, see Berry-Kilgour et al., Advancements in the Delivery of Growth Factors and Cytokines for the Treatment of Cutaneous Wound Indications; Adv Wound Care (New Rochelle) 2021; 10(11):596-622. Epub 20201125. doi:10/1089?wound.2020.1183. PubMed PMID:33086946: PMCID: PMC8392095.
To generate a humanized skin graft mice model, Foxn1nu nude male mice of 6 weeks old can be used as the recipient animals. These mice are devoid of T cells and suffer from a lack of cell-mediated immunity making them a model of choice for xenograft studies. […] Following the sustained diabetic state period, wounds are inflicted on the transplanted human skin with a 3 mm punch biopsy, treatment options include the best two Metrifonate-Hydrogel dressings, previously determined by the mice and pig studies for the preferred two doses. […] Wound healing can be monitored using standardized photography daily during the course of 3, 5 and 10 days. […]
To generate a humanized skin graft mice model, Foxn1nu nude male mice of 6 weeks old can be used as the recipient animals. […] Following the sustained diabetic state period, wounds are inflicted on the transplanted human skin with a 3 mm punch biopsy, treatment options include the best two Metrifonate-Hydrogel dressings, previously determined by the mice and pig studies for the preferred two doses. […]

[6] = oral 30-60 mg daily up to 26 weeks; cited from earlier work
fibroblasts [7] = experiment: Nicotinic and muscarinic receptor gene expression, fibroblasts; details: 48 hours
keratinocytes [8] = experiment: Nicotinic and muscarinic receptor gene expression, keratinocytes; details: 48 hours
acute porcine wounds = experiment: Metrifonate eluting dressings on acute porcine wounds over 20 days
[9] = tested on: THP-1 monocyte derived macrophages; experiment: Nicotinic and muscarinic receptor gene expression, THP-1 monocyte derived macrophages; details: 48 hours
db/db mouse model [10] = experiment: Receptor agonists and antagonists on db/db mouse wounds, day 5 sacrifice; details: 2 mg/kg topically daily with blk-gel; Chrm1, Chrm3 or α7nAChR agonist

CHI3L1 protein: bandages loaded with CHI3L1 protein employed as additional control
wound healing during the whole period vs blank bandage (repeated measurement analysis) (diabetic db/db mice; 4 μg bandage, D0 to D10): no differences in wound healing | wound reduction on Day 10 (diabetic db/db mice; Day 10, compared with blank): similar

COP(=O)(OC)C(O)C(Cl)(Cl)Cl (stereo not shown) [metrifonate, (2,2,2-trichloro-1-hydroxyethyl) dimethylphosphonate]
metrifonate concentration that began to negatively affect viability (fibroblasts [1]): over 10 μg/ml | keratinocyte migration / scratch wound closure (keratinocytes [2]): significantly accelerate migration | increase in IL10 gene expression ([3]; M0 macrophages): 30 fold | downregulation of IL1b ([3]; M1 cells): 12 fold | downregulation of TNF ([3]; M1 cells): 40 fold | increase in IL10 gene expression ([3]; M2 macrophages): 10 fold | total and degranulated mast cells (toluidine blue staining) (db/db mouse model [4]): enrichment of both total and degranulated mast cells | Acetylcholinesterase (AchE) activity in wounds [5]: inhibits the activity of Acetylcholinesterase (AchE) | wound healing (diabetic humanized mice; low dose hydrogel vs blank hydrogel, D0 to D7): improved wound healing | expression of Il10, Arg and human gene VEGFA (RT-qPCR) (diabetic humanized mice; upon sacrifice): increased the expression | clinical effect in mild-to-moderate Alzheimer's disease [6]: beneficial effect | receptor gene expression (fibroblasts [7]): activation of CHRNA4; also recorded: increased expression of CHRNA4 | receptor gene expression (keratinocytes [8]): up-regulation of CHRM3 and CHRNB4 receptors | adverse effects (acute porcine wounds): did not induce any adverse effects | wound lengths in histological assessment (acute porcine wounds): shorter wound lengths | receptor gene expression ([9]; M0 cells): activation of CHRM3 receptor; also recorded: up-regulation of CHRM3 receptor | receptor gene expression ([9]; M1 cells): activation of CHRM4; also recorded: higher expression of CHRM4 and CHRNA3 receptors

LASSBIo0897
effect of agonist on wound healing (db/db mouse model [10]): only the M1 agonist accelerated wound healing

O=C(N[C@H]1CN2CCC1CC2)c1ccc(Cl)cc1 [PNU-282987]
effect of agonist on wound healing (db/db mouse model [10]): only the M1 agonist accelerated wound healing

C[N+](C)(C)CC#CCOC(=O)Nc1cccc(Cl)c1.[Cl-] [McN-A 343]
effect of agonist on wound healing (db/db mouse model [10]): promoted the wound healing; also recorded: accelerated wound healing
